Data taken from patent US11584714B2 (priority 2018, dated 2023).

What was measured:
Thrombin = Thrombin (Homo sapiens (Human), UniProt P00734); assay: Thrombin inhibition (Ki); assay type: biochemical; settings: for Ki: read-out: Thrombin Ki
MASP-2 = MASP-2 (Homo sapiens (Human), UniProt O00187); assay: MASP-2 inhibition (Ki); assay type: biochemical
Sequence of MASP-2 (O00187 16-686): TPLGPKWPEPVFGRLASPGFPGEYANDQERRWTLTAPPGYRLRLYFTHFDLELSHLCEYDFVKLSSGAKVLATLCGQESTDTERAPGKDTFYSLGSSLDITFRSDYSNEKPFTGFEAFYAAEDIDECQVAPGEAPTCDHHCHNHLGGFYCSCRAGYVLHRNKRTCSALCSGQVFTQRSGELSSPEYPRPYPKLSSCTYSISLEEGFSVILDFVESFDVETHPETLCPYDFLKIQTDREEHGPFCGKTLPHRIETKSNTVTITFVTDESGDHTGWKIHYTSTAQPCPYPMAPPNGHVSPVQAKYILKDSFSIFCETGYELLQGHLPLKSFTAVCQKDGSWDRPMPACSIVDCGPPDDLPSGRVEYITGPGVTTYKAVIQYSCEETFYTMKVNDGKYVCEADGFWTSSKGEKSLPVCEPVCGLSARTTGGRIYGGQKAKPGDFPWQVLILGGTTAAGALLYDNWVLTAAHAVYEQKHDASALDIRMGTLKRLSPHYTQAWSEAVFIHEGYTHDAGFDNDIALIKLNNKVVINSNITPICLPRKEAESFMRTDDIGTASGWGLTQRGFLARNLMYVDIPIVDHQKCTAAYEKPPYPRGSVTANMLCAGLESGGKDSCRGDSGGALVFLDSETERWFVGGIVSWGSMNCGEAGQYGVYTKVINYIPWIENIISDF

SMILES	Ki (Thrombin) [µM]	Ki (MASP-2) [µM]	Thrombin Ki (μM) (Thrombin)
Cc1ccccc1C1=N/C(=C\c2ccco2)C(=O)O1 [compound 1]	< 10	< 10	–
Cc1ccc(/C=C2\N=C(c3ccccc3F)OC2=O)o1 [compound 2]	25 to 100	< 10	–
COc1ccc(/C=C2\N=C(c3ccccc3OC)OC2=O)cc1OC [compound 3]	< 10	25 to 100	–
COc1ccccc1C1=N/C(=C\c2cc(OC)c(OC)c(OC)c2)C(=O)O1 [compound 4]	25 to 100	< 10	–
COc1ccccc1C1=N/C(=C\c2cccs2)C(=O)O1 [compound 5]	–	10 to 25	–
O=C1OC(/C=C/c2ccccc2)=NC/1=C\c1ccco1 [compound 6]	25 to 100	< 10	–
O=C(NNC(=O)c1cc2ccccc2cc1O)c1ccco1 [compound 7]	< 10	< 10	–
Cc1c(C(=O)Nc2ccccc2C(=O)O)cccc1[N+](=O)[O-] [compound 9]	< 10	< 10	–
O=c1oc(-c2cccs2)nc2ccccc12 [compound 10]	25 to 100	< 10	–
O=c1oc(-c2ccco2)nc2cc(Cl)ccc12 [compound 11]	–	< 10	No Activity
Cc1cc(=O)oc2cc(OC(=O)c3ccco3)ccc12 [compound 12]	< 10	< 10	–
CCOC(=O)c1ccc2c(c1)C1C=CCC1C(C(=O)O)N2 (stereo not drawn) [compound 13]	–	25 to 100	No activity
O=c1oc(-c2ccccc2[N+](=O)[O-])nc2ccccc12 [compound 14]	< 10	< 10	–
COc1cccc2c1NC(C(=O)O)C1CC=CC21 (stereo not drawn) [compound 15]	–	25 to 100	No activity
O=C(O)c1cc(N2N=C(C(F)(F)F)/C(=C\C=C\c3ccco3)C2=O)ccc1Cl [compound 16]	–	25 to 100	No activity
Cc1c(/N=C/c2ccc(OC(=O)c3ccccn3)cc2)c(=O)n(-c2ccccc2)n1C [compound 17]	25 to 100	< 10	–
Cc1cccc2c(=O)oc(-c3ccccc3Cl)nc12 [compound 18]	< 10	< 10	–
O=c1oc(-c2ccco2)nc2scc(-c3cccs3)c12 [compound 19]	25 to 100	< 10	–
O=C(Oc1ccc([N+](=O)[O-])cc1)c1ccc(Br)o1 [compound 20]	–	< 10	No Activity
O=Cc1ccc(OC(=O)c2ccco2)cc1 [compound 21]	< 10	< 10	–
O=C(O)C1Nc2c(O)cc(Cl)c([N+](=O)[O-])c2C2C=CCC12 (stereo not drawn) [compound 22]	–	10 to 25	No Activity
CCCc1nnc(NC(CC)OC(=O)c2cc(C)nc3ccccc23)s1 (stereo not drawn) [compound 23]	–	< 10	No Activity
COC(=O)c1cn(C(=O)c2cc(OC)cc(OC)c2)nc1N [compound 24]	10 to 25	< 10	–
